Reference: patent US7622638B2, “Genetic manipulation of condensed tannins” (priority 2002, dated 2009)

Tests used:
AtBAN = AtBAN (Arabidopsis thaliana, UniProt Q9SEV0); type: biochemical; settings: for conversion of flavan-3-ol into its isomer on incubation with AtBAN: in the presence of NADPH; for reduction of anthocyanidin substrate to flavan-3-ol product by AtBAN: AtBAN protein extract (4 month old frozen), NADPH as coenzyme, HPLC
MtBAN = assay: Anthocyanidin reductase activity assay with recombinant MtBAN protein extract (HPLC of products); type: biochemical, Medicago truncatula; settings: for conversion of flavan-3-ol into its isomer on incubation with MtBAN: in the presence of NADPH; for reduction of anthocyanidin substrate to flavan-3-ol product(s) by MtBAN: MtBAN protein extract, NADPH, Tris-HCl pH 7.0, 30° C. for 30 min, HPLC
Anthocyanidin reductase [1] = assay: Anthocyanidin reductase assay with desalted crude enzyme from grape fruit skin; type: biochemical, Vitis vinifer; settings: 100 μM cyanidin, 1 mM NADPH, 30° C. for 30 min
Procedure: (§1) Lotus corniculatus, Desmodium uncinatum and Barley cv. Morex were grown in a green house. Young leaves from L. corniculatus, unexpanded leaves, and young pods as well as open flowers and flower buds from D. uncinatum, and young grains from Barley were collected. Testa of barley grains were excised and pooled together for enzyme extraction. Mature grape fruit stored at −80° C. was treated in pH 7 100 mM Tris.HCl buffer for 30 seconds for isolated the skin for enzyme extraction.
(§2) A fresh one-gram leaf sample of L. corniculatus, one-gram testa from barley, and 9 grams of grape fruit skin, as well as two grams of flowers, 3 grams of young pods and 3 grams of young unexpanded leaves from Desmodium uncinatum were ground into homogenate fine powder in liquid nitrogen. The follow buffer systems were used for enzyme extraction. Extraction buffer 1: pH7 100 mM Tris.HCl, 10% glycerol and 2 mM 1,4-dithiothreitol; Extraction buffer 2: pH8 50 mM phosphate buffer, 10% glycerol, 1.5% polyethyleneglycerol 4000 (PEG-4000), 2 mM pH 8.0 Na-DETA, 25 mM sodium ascorbate, 20 mM β-mecaptoenthanol, and 5 mM 1,4-dithiothreitol; Extraction buffer 3: pH8 100 mM Tris.HCl, 10% glycerol 1.5% polyethyleneglycerol 4000 (PEG-4000), 2 mM pH 8.0 Na-DETA, 25 mM sodium ascorbate, 80 mM β-mecaptoenthanol, and 5 mM 1,4-dithiothreitol. […]

Anthocyanidin reductase [2] = assay: Anthocyanidin reductase assay with desalted crude enzyme from Lotus corniculatus leaves; type: biochemical; settings: young leaves; 100 μM cyanidin, 1 mM NADPH, 30° C. for 30 min
Procedure: as §1, §2

Anthocyanidin reductase [3] = assay: Anthocyanidin reductase assay with desalted crude enzyme from barley testa tissue; type: biochemical, Hordeum vulgera (barley) cv. morex; settings: 100 μM cyanidin, 1 mM NADPH, 30° C. for 30 min
Procedure: as §1, §2

[4] = system: Anthocyanidin reductase (ANR); assay: Anthocyanidin reductase assay with desalted crude enzyme from Desmodium uncinatum tissues; type: biochemical; settings: 100 μM cyanidin, 1 mM NADPH
Procedure: as §1
A fresh one-gram leaf sample of L. corniculatus, one-gram testa from barley, and 9 grams of grape fruit skin, as well as two grams of flowers, 3 grams of young pods and 3 grams of young unexpanded leaves from Desmodium uncinatum were ground into homogenate fine powder in liquid nitrogen. The follow buffer systems were used for enzyme extraction. Extraction buffer 1: pH7 100 mM Tris.HCl, 10% glycerol and 2 mM 1,4-dithiothreitol; Extraction buffer 2: pH8 50 mM phosphate buffer, 10% glycerol, 1.5% polyethyleneglycerol 4000 (PEG-4000), 2 mM pH 8.0 Na-DETA, 25 mM sodium ascorbate, 20 mM β-mecaptoenthanol, and 5 mM 1,4-dithiothreitol; Extraction buffer 3: pH8 100 mM Tris.HCl, 10% glycerol 1.5% polyethyleneglycerol 4000 (PEG-4000), 2 mM pH 8.0 Na-DETA, 25 mM sodium ascorbate, 80 mM β-mecaptoenthanol, and 5 mM 1,4-dithiothreitol.
The homogenate powder of lotus leaf and barley testa tissue was suspended in 5 ml extraction buffer 1, in which 1% proteinase inhibitor (Sigma) (V/V) was added. The homogenate powder of flowers and pods from Desmodium was suspended in extraction buffer 2, also in which 1% proteinase inhibitor (Sigma) (V/V) was added. The fine powder of Desmodium leaves or grape fruit skin was respectively suspended in 6 ml or 50 ml extraction buffer 3, in which 1% proteinase inhibitor (Sigma) (V/V) is added. The homogenates were vortexed vigorously and stayed on ice for 5-10 mm, squeezed through microcloth into 50 ml tubes and then 1/5 (W/V) equilibrated Dowex 1×2 was added into collected squeezed mixture solution. […]

[5] = reactions containing leucoanthocyanidins, repeated attempts

Sequence of AtBAN (Q9SEV0 other isoform, or with tags, fused parts or gaps K55Q/I146L/V156I/E157D/T179K/K185E): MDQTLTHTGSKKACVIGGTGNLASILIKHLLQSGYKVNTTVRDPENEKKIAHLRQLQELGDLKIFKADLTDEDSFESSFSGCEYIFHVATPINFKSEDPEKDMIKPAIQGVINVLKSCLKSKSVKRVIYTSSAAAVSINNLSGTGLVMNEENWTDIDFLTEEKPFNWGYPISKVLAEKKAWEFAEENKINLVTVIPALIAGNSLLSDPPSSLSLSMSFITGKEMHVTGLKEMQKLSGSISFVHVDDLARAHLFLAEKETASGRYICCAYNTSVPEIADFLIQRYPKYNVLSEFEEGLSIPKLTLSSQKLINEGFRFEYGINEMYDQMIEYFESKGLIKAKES

With `Oc1cc(O)c2c(c1)O[C@H](c1ccc(O)c(O)c1)[C@@H](O)C2` [(+)-catechin] the “conversion of flavan-3-ol into its isomer on incubation with AtBAN” value (AtBAN) was “does not produce” and the “conversion of flavan-3-ol into its isomer on incubation with MtBAN” value (MtBAN) was “does not produce”.

`Oc1cc(O)c2c(c1)O[C@H](c1ccc(O)c(O)c1)[C@H](O)C2` [(−) epicatechin, (−)-epicatechin] was tested, and the “conversion of flavan-3-ol into its isomer on incubation with AtBAN” value (AtBAN) was “does not produce” and the “conversion of flavan-3-ol into its isomer on incubation with MtBAN” value (MtBAN) was “does not produce”.

In the case of `NC(=O)C1=CN([C@@H]2O[C@H](COP(=O)(O)OP(=O)(O)OC[C@H]3O[C@@H](n4cnc5c(N)ncnc54)[C@H](O)[C@@H]3O)[C@@H](O)[C@H]2O)C=CC1` [NADH], the “conversion with NADH relative to the level achieved with NADPH at the same concentration” value (MtBAN; NADH 2 mM final concentration substituted for NADPH) was “approximately 50%”.

With `NC(=O)C1=CN([C@@H]2O[C@H](COP(=O)(O)OP(=O)(O)OC[C@H]3O[C@@H](n4cnc5c(N)ncnc54)[C@H](OP(=O)(O)O)[C@@H]3O)[C@@H](O)[C@H]2O)C=CC1` [NADPH] the “co-factor dependence of conversion of anthocyanidins to flavan-3-ols” value (MtBAN; NADPH omitted from the enzyme assay mixtures) was “NADPH-dependent”.

`Oc1cc(O)c2cc(O)c(-c3ccc(O)c(O)c3)[o+]c2c1.[Cl-]` [cyanidin, cyanidin chloride] was tested, and the “conversion of cyanidin by extract with NADPH” value (“conversion of cyanidin” for short) (Anthocyanidin reductase [1]) was “producing epicatechin”, the “conversion of cyanidin” value (Anthocyanidin reductase [2]) was “producing epicatechin” and the “reduction of anthocyanidin substrate to flavan-3-ol product by AtBAN” value (from here on “reduction of anthocyanidin substrate … by AtBAN”) (AtBAN) was “reduction of cyanidin to epicatechin”. For the same molecule, the “conversion of cyanidin” value (Anthocyanidin reductase [3]) was “producing epicatechin”, the “reduction of anthocyanidin substrate to flavan-3-ol product(s) by MtBAN” value (from here on “reduction of anthocyanidin substrate … by MtBAN”) (MtBAN) was “reducing cyanidin to the corresponding flavan-3-ols, catechin and epicatechin” and the “conversion of cyanidin” value ([4]; ANR from flowers) was “producing epicatechin”. For the same molecule, the “conversion of cyanidin” value ([4]; ANR from leaves) was “producing epicatechin” and the “conversion of cyanidin” value ([4]; ANR from young pods) was “producing epicatechin”.

With `Oc1cc(O)c2cc(O)c(-c3cc(O)c(O)c(O)c3)[o+]c2c1` [delphinidin, delphinidin chloride] the “reduction of anthocyanidin substrate … by AtBAN” value (AtBAN) was “delphinidin into gallocatechin” and the “reduction of anthocyanidin substrate … by MtBAN” value (MtBAN) was “catalyzed the reduction of delphinidin into putative gallo-catechin and epi-gallocatechin”.

For `Oc1ccc(-c2[o+]c3cc(O)cc(O)c3cc2O)cc1` [pelargonidin, Pelargonidin chloride], the “reduction of anthocyanidin substrate … by AtBAN” value (AtBAN) was “pelargonidin into epi-alfzelechin” and the “reduction of anthocyanidin substrate … by MtBAN” value (MtBAN) was “tentatively identified as epi-afzelechin”.

In the case of leucoanthocyanidins, the “LAR activity with recombinant AtBAN” value (AtBAN; [5]) was “no LAR activity was observed” and the “LAR activity with recombinant MtBAN” value (MtBAN; [5]) was “no LAR activity was observed”.
